Reference: patent publication US7473688B2, “Indolobenzazepine HCV NS5B inhibitors” (Bristol-Myers Squibb Company, priority 2005, dated 2009)
Where two headings read alike, the source gives them in different places.

How the values were obtained:
HCV NS5B = target: T1, HCV NS5B (Hepatitis C virus genotype 1b, UniProt Q9WMX2); test: HCV NS5B RdRp enzyme assay (preincubation protocol); type: biochemical; conditions: read-out: IC50*
T1 construct: The protein was expressed with an 18 amino acid C-terminal truncation to enhance the solubility; made in house; host or cells: E. coli BL21 (DE3), pET21a
Outline: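 C-terminally truncated (Δ18) genotype 1b NS5B from E. coli, 14 nM, added to compound, then polyA template (0.2 nM), 3H-UTP (0.29 μM) and oligo-dT12 primer precaptured on streptavidin SPA beads. 4 h at 30 °C, pH 7.5, 2% DMSO; SPA readout; IC50 from seven concentrations by logistic fit.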

HCV replicon = HCV replicon FRET assay; type: cell-based; conditions: Hepatitis C virus, FRET assay, read-out: EC50*
Outline: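 HCV replicon cells, with or without Renilla luciferase reporter, incubated with titrated compounds at 37 °C; Alamar blue read for cytotoxicity. NS3 protease activity read from lysates with 20 μM EDANS/DABCYL FRET peptide (340/490 nm, kinetic), or by Dual-Glo luciferase. Background from highest protease-inhibitor wells; EC50 = 50% signal reduction.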

T1 sequence (Q9WMX2 2420-2992): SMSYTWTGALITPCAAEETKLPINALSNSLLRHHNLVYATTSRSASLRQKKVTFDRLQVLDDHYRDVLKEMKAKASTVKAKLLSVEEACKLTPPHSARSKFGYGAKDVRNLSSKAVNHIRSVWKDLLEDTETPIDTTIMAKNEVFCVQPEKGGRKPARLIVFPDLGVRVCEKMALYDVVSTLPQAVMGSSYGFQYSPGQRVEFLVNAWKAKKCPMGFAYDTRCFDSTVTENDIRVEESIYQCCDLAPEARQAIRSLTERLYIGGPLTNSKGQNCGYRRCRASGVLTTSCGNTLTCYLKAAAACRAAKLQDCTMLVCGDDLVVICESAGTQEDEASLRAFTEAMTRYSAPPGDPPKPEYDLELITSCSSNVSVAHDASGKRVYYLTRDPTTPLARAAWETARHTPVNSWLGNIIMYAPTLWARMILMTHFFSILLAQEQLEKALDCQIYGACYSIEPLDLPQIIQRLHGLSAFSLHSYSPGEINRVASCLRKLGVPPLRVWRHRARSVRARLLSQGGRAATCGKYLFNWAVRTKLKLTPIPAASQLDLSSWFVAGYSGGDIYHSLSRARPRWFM

Structure (SMILES)	IC50 (HCV NS5B; Table 1a) [nM]	EC50 (HCV replicon; Table 1a) [nM]	IC50 (HCV NS5B; Table 1b) [nM]	EC50 (HCV replicon; Table 1b) [nM]
COc1ccc2c(c1)C=C(C(=O)N1CCN(C(=O)C3CC3)CC1)Cn1c-2c(C2CCCCC2)c2ccc(C(=O)NS(=O)(=O)N(C)C)cc21	10 to 1000	30 to 1000	–	–
COc1ccc2c(c1)CC(C(=O)N(C)C1CCOCC1)Cn1c-2c(C2CCCCC2)c2ccc(C(=O)NS(=O)(=O)N(C)C)cc21 (stereo not shown)	10 to 1000	30 to 1000	–	–
COc1ccc2c(c1)CC(C(=O)N(C)C1CCOCC1)Cn1c-2c(C2CCCCC2)c2ccc(C(=O)O)cc21 (stereo not shown)	< 20	30 to 1000	–	–
COc1ccc2c(c1)CC(NC(=O)N1CCOC(CNC(C)=O)C1)Cn1c-2c(C2CCCCC2)c2ccc(C(=O)NS(=O)(=O)N(C)C)cc21 (stereo not shown)	< 20	30 to 1000	–	–
COc1ccc2c(c1)C=C(C(=O)N1CCOC(CO)C1)Cn1c-2c(C2CCCCC2)c2ccc(C(=O)NS(=O)(=O)N(C)C)cc21 (stereo not shown)	10 to 1000	30 to 1000	–	–
COc1ccc2c(c1)C=C(C(=O)N1CC(C)CC(O)C1(C)C)Cn1c-2c(C2CCCCC2)c2ccc(C(=O)NS(=O)(=O)N(C)C)cc21 (stereo not shown)	< 20	30 to 1000	–	–
COc1ccc2c(c1)CC(C(=O)NCc1cc(C)nn1C)Cn1c-2c(C2CCCCC2)c2ccc(C(=O)NS(=O)(=O)N(C)C)cc21 (stereo not shown)	10 to 1000	30 to 1000	–	–
COc1ccc2c(c1)CC(C(=O)NCc1cn(C)cn1)Cn1c-2c(C2CCCCC2)c2ccc(C(=O)NS(=O)(=O)N(C)C)cc21 (stereo not shown)	10 to 1000	30 to 1000	–	–
COc1ccc2c(c1)CC(C(=O)N(C)CC(=O)N1CCOCC1)Cn1c-2c(C2CCCCC2)c2ccc(C(=O)NS(=O)(=O)N(C)C)cc21 (stereo not shown)	< 20	30 to 1000	–	–
COC(=O)CCC(=O)CNC(=O)C1=Cc2cc(OC)ccc2-c2c(C3CCCCC3)c3ccc(C(=O)OC)cc3n2C1	10 to 1000	30 to 1000	–	–
COc1ccc2c(c1)CC(NC(=O)N1C[C@@H](C)O[C@@H](C)C1)Cn1c-2c(C2CCCCC2)c2ccc(C(=O)NS(=O)(=O)N(C)C)cc21 (stereo partly shown)	10 to 1000	30 to 1000	–	–
COC(=O)c1ccc2c(C3CCCCC3)c3n(c2c1)CC(C(=O)NC1CCOCC1)=Cc1cc(OC)ccc1-3	10 to 1000	30 to 1000	–	–
COc1ccc2c(c1)C=C(C(=O)N(C)CCN(C)C(C)=O)Cn1c-2c(C2CCCCC2)c2ccc(C(=O)NS(=O)(=O)N(C)C)cc21	10 to 1000	30 to 1000	–	–
COc1ccc2c(c1)C=C(C(=O)N1CC(OC)C1)Cn1c-2c(C2CCCCC2)c2ccc(C(=O)NS(=O)(=O)N(C)C)cc21	< 20	30 to 1000	–	–
COc1ccc2c(c1)C=C(C(=O)N(C)CC(=O)N1CCC1)Cn1c-2c(C2CCCCC2)c2ccc(C(=O)NS(=O)(=O)N(C)C)cc21	10 to 1000	30 to 1000	–	–
CCN(C)C(=O)CN(C)C(=O)C1=Cc2cc(OC)ccc2-c2c(C3CCCCC3)c3ccc(C(=O)NS(=O)(=O)N(C)C)cc3n2C1	10 to 1000	30 to 1000	–	–
COc1ccc2c(c1)C=C(C(=O)N(C)CC(=O)N1CC(OC)C1)Cn1c-2c(C2CCCCC2)c2ccc(C(=O)NS(=O)(=O)N(C)C)cc21	10 to 1000	30 to 1000	–	–
COc1ccc2c(c1)CC(NC(=O)N1C[C@@H](C)N(C(C)=O)[C@@H](C)C1)Cn1c-2c(C2CCCCC2)c2ccc(C(=O)NS(=O)(=O)N(C)C)cc21 (stereo partly shown)	10 to 1000	30 to 1000	–	–
COc1ccc2c(c1)CC(NC(=O)N(C)CC(=O)N1CCOCC1)Cn1c-2c(C2CCCCC2)c2ccc(C(=O)NS(=O)(=O)N(C)C)cc21 (stereo not shown)	10 to 1000	30 to 1000	–	–
COc1ccc2c(c1)CC(NC(=O)N1CCC(N3CCOCC3)CC1)Cn1c-2c(C2CCCCC2)c2ccc(C(=O)NS(=O)(=O)N(C)C)cc21 (stereo not shown)	10 to 1000	30 to 1000	–	–
COc1ccc2c(c1)CC(NC(=O)N1CCOC(CN(C)C)C1)Cn1c-2c(C2CCCCC2)c2ccc(C(=O)NS(=O)(=O)N(C)C)cc21 (stereo not shown)	10 to 1000	30 to 1000	–	–

Structure (SMILES)	IC50 (HCV NS5B; Table 1a) [nM]	EC50 (HCV replicon; Table 1a) [nM]	IC50 (HCV NS5B; Table 1b) [nM]	EC50 (HCV replicon; Table 1b) [nM]
COc1ccc2c(c1)CC(NC(=O)N1CCOC(CN3CCCC3)C1)Cn1c-2c(C2CCCCC2)c2ccc(C(=O)NS(=O)(=O)N(C)C)cc21 (stereo not shown)	10 to 1000	30 to 1000	–	–
COc1ccc2c(c1)CC(NC(=O)N1CCN(C(N)=O)CC1)Cn1c-2c(C2CCCCC2)c2ccc(C(=O)NS(=O)(=O)N(C)C)cc21 (stereo not shown)	10 to 1000	30 to 1000	–	–
COc1ccc2c(c1)CC(NC(=O)N1CCN(CC(=O)NC(C)C)CC1)Cn1c-2c(C2CCCCC2)c2ccc(C(=O)NS(=O)(=O)N(C)C)cc21 (stereo not shown)	10 to 1000	30 to 1000	–	–
CCN(C(C)=O)C1CCN(C(=O)NC2Cc3cc(OC)ccc3-c3c(C4CCCCC4)c4ccc(C(=O)NS(=O)(=O)N(C)C)cc4n3C2)C1 (stereo not shown)	10 to 1000	30 to 1000	–	–
COc1ccc2c(c1)CC(NC(=O)N1CCS(=O)(=O)CC1)Cn1c-2c(C2CCCCC2)c2ccc(C(=O)NS(=O)(=O)N(C)C)cc21 (stereo not shown)	10 to 1000	30 to 1000	–	–
COc1ccc2c(c1)CC(NC(=O)N1C[C@@H]3C[C@H]1CO3)Cn1c-2c(C2CCCCC2)c2ccc(C(=O)NS(=O)(=O)N(C)C)cc21 (stereo partly shown)	10 to 1000	30 to 1000	–	–
COc1ccc2c(c1)CC(NC(=O)NCCN1CCOCC1)Cn1c-2c(C2CCCCC2)c2ccc(C(=O)NS(=O)(=O)N(C)C)cc21 (stereo not shown)	10 to 1000	30 to 1000	–	–
COc1ccc2c(c1)CC(NC(=O)N1CCC(N3CCCC3)CC1)Cn1c-2c(C2CCCCC2)c2ccc(C(=O)NS(=O)(=O)N(C)C)cc21 (stereo not shown)	10 to 1000	30 to 1000	–	–
COc1ccc2c(c1)CC(NC(=O)N1CCN(S(C)(=O)=O)CC1)Cn1c-2c(C2CCCCC2)c2ccc(C(=O)NS(=O)(=O)N(C)C)cc21 (stereo not shown)	10 to 1000	30 to 1000	–	–
COc1ccc2c(c1)CC(NC(=O)N1CCN(C(C)=O)CC1)Cn1c-2c(C2CCCCC2)c2ccc(C(=O)NS(=O)(=O)N(C)C)cc21 (stereo not shown)	10 to 1000	30 to 1000	–	–
COc1ccc2c(c1)CC(NC(=O)N(C)CC(=O)N(C)C)Cn1c-2c(C2CCCCC2)c2ccc(C(=O)NS(=O)(=O)N(C)C)cc21 (stereo not shown)	10 to 1000	30 to 1000	–	–
COc1ccc2c(c1)C=C(C(=O)N(C)C1CCOCC1)Cn1c-2c(C2CCCCC2)c2ccc(C(=O)NS(=O)(=O)N(C)C)cc21	10 to 1000	> 120	–	–
COc1ccc2c(c1)C=C(C(=O)NCc1nccs1)Cn1c-2c(C2CCCCC2)c2ccc(C(=O)NS(=O)(=O)N(C)C)cc21	10 to 1000	30 to 1000	–	–
COc1ccc2c(c1)C=C(C(=O)N(CC(=O)O)CC(=O)O)Cn1c-2c(C2CCCCC2)c2ccc(C(=O)NS(=O)(=O)N(C)C)cc21	–	–	20 to 1000	> 10000
CCN(C)C(=O)NC1Cc2cc(OC)ccc2-c2c(C3CCCCC3)c3ccc(C(=O)NS(=O)(=O)N(C)C)cc3n2C1 (stereo not shown)	–	–	20 to 1000	30 to 1000
COc1ccc2c(c1)CC(NC(=O)N(C)CCN(C)C)Cn1c-2c(C2CCCCC2)c2ccc(C(=O)NS(=O)(=O)N(C)C)cc21 (stereo not shown)	–	–	20 to 1000	30 to 1000
COc1ccc2c(c1)CC(NC(N)=O)Cn1c-2c(C2CCCCC2)c2ccc(C(=O)NS(=O)(=O)N(C)C)cc21 (stereo not shown)	–	–	20 to 1000	30 to 1000
COCCNC(=O)CN(C)C(=O)NC1Cc2cc(OC)ccc2-c2c(C3CCCCC3)c3ccc(C(=O)NS(=O)(=O)N(C)C)cc3n2C1 (stereo not shown)	–	–	20 to 1000	30 to 1000
COc1ccc2c(c1)CC(NC(=O)N(C)CC(=O)NC(C)C)Cn1c-2c(C2CCCCC2)c2ccc(C(=O)NS(=O)(=O)N(C)C)cc21 (stereo not shown)	–	–	20 to 1000	30 to 1000
COc1ccc2c(c1)CC(NC(=O)N(C)CC1CCOCC1)Cn1c-2c(C2CCCCC2)c2ccc(C(=O)NS(=O)(=O)N(C)C)cc21 (stereo not shown)	–	–	20 to 1000	30 to 1000
